Values joined by “and” are separate entries in the source; they are usually repeats but may differ in a detail not shown here. Identical values can stand only once.
Assays:
TgAPP mice = assay: Morris water maze, TgAPP mice; format: in vivo, mouse; parameters: Platform Distance: unit not given beside the values; Total Distance / Quad Time / Quad Distance / Trial 1 D4 / Trial 1 D4 AVG: unit not given here
Procedure: The Morris water maze was performed using a water bath 6 ft in diameter and filled with roughly 1 ft of water. The maze was divided into four quadrants, each with a visual stimulus positioned on the wall of the maze in the center of the quadrant arc. A clear platform was placed in one quadrant just beneath the surface of the water. Mice were then placed in a random non-platform quadrant and allowed to swim freely for 60 s (time was stopped and recorded if the mouse found the platform) before being placed on the platform for 15 s and returned to their cage. This was repeated for each of the three quadrants each day for 4 d. On the 5th d, the platform was removed and mice were placed in the quadrant opposite of where the platform had been and allowed to swim freely for 1 min before being returned to their cage. Time spent in the correct quadrant, latency to the platform, number of platform entries, and number of quadrant entries were recorded.

ABL1 = molecular target: T1, ABL1 (Homo sapiens, UniProt P00519); assay: KINOMEscan competition binding, ABL1; settings: 10 µM compound
T1 construct: DNA label for qPCR read-out (T7 phage fusion or DNA tag); purchased Eurofins DiscoverX Corporation; host or cells: T7 phage in E. coli (BL21-derived) or HEK-293
T1 sequence (P00519 whole entry, the tested form may be a part): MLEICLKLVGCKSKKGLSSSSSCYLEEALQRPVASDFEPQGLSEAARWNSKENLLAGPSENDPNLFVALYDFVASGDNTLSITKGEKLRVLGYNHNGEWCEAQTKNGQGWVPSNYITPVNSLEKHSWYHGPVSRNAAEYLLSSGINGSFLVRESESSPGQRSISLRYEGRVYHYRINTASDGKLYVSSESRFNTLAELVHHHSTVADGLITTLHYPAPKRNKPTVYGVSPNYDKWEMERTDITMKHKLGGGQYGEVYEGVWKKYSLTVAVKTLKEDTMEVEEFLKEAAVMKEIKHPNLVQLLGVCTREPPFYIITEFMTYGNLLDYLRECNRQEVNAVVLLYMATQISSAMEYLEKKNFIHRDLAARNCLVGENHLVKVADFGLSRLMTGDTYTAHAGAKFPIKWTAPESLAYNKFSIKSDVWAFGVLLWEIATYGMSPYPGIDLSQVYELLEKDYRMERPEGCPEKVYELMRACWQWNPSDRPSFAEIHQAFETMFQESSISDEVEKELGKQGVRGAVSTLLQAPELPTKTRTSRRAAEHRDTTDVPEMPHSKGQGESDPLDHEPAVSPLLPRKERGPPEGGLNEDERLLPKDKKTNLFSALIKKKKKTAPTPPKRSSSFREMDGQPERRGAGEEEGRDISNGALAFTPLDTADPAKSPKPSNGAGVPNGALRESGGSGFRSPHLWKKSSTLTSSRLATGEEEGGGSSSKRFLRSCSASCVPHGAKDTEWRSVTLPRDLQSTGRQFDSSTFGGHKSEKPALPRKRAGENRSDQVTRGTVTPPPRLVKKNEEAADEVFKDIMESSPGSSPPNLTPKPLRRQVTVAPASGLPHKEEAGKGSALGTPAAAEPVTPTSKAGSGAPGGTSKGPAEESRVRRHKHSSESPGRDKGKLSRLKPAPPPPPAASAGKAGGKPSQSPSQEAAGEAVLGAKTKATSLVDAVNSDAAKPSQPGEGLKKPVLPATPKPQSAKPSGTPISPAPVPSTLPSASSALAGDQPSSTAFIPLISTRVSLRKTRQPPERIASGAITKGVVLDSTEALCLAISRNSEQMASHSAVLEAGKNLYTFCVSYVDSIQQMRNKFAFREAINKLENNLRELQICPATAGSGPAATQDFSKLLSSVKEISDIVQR
Procedure: (§1) The KINOMEscan screening platform (Eurofins DiscoverX Corporation) was performed using active site-directed competition binding assay to quantitatively measure interactions between BK40143 and BK40197 and more than 450 human kinases and disease relevant mutant variants. […] Screening “hits” are identified by measuring the amount of kinase captured in test (BK40143 and BK40197) versus control samples by using a quantitative and ultra-sensitive qRT-PCR method that detects the associated DNA label. BK40143 and BK40197 were screened at 10 µM concentration, and results for primary screen binding interactions were reported as “% Ctrl” (POC), where lower numbers indicate stronger hits and calculated as follows: [test compound signal−positive control signal/negative control signal−positive control signal]×100
(§2) negative control = DMSO (100% Ctrl)
(§3) positive control = control compound (0% Ctrl)
(§4) Based on screening data from of profiled compounds, a proportional relationship between primary screening results and corresponding compound/target affinities can be described as binding constants (Kd values) for the indicated ranges of POC values with tighter binding (higher affinity) interactions associated with lower POC values and weaker binding (lower affinity) associated with higher POC values. Briefly, kinase-tagged T7 phage strains were grown in parallel in 24-well blocks in an E. coli host derived from the BL21 strain. E. coli were grown to log-phase and infected with T7 phage from a frozen stock (multiplicity of infection = 0.4) and incubated with shaking at 32°C until lysis (90–150 min). The lysates were centrifuged (6,000g) and filtered (0.2 μm) to remove cell debris. The remaining kinases were produced in HEK-293 cells and subsequently tagged with DNA for qRT-PCR detection. Streptavidin-coated magnetic beads were treated with biotinylated small molecule ligands for 30 min at RT to generate affinity resins for kinase assays. The liganded beads were blocked with excess biotin and washed with blocking buffer (1% BSA, 0.05% Tween 20, 1 mM DTT; SeaBlock [Pierce]) to remove unbound ligand and to reduce non-specific phage binding. Binding reactions were assembled by combining kinases, liganded affinity beads, and test compounds in 1x binding buffer (20% 0.17x PBS, 0.05% Tween 20, 6 mM DTT; SeaBlock). Test compounds were prepared as 100x stocks in 100% DMSO and directly diluted into the assay. All reactions were performed in polypropylene 384-well plates in a final volume of 0.02 ml. The assay plates were incubated at RT with shaking for 1 h and the affinity beads were washed with wash buffer (1x PBS, 0.05% Tween 20). […] The kinase concentration in the eluates was measured by qRT-PCR.

CIT = molecular target: T2, CIT (Homo sapiens, UniProt O14578); assay: KINOMEscan competition binding, CIT; settings: 10 µM compound
T2 construct: DNA label for qPCR read-out (T7 phage fusion or DNA tag); purchased Eurofins DiscoverX Corporation; host or cells: T7 phage in E. coli (BL21-derived) or HEK-293
T2 sequence (O14578 whole entry, the tested form may be a part): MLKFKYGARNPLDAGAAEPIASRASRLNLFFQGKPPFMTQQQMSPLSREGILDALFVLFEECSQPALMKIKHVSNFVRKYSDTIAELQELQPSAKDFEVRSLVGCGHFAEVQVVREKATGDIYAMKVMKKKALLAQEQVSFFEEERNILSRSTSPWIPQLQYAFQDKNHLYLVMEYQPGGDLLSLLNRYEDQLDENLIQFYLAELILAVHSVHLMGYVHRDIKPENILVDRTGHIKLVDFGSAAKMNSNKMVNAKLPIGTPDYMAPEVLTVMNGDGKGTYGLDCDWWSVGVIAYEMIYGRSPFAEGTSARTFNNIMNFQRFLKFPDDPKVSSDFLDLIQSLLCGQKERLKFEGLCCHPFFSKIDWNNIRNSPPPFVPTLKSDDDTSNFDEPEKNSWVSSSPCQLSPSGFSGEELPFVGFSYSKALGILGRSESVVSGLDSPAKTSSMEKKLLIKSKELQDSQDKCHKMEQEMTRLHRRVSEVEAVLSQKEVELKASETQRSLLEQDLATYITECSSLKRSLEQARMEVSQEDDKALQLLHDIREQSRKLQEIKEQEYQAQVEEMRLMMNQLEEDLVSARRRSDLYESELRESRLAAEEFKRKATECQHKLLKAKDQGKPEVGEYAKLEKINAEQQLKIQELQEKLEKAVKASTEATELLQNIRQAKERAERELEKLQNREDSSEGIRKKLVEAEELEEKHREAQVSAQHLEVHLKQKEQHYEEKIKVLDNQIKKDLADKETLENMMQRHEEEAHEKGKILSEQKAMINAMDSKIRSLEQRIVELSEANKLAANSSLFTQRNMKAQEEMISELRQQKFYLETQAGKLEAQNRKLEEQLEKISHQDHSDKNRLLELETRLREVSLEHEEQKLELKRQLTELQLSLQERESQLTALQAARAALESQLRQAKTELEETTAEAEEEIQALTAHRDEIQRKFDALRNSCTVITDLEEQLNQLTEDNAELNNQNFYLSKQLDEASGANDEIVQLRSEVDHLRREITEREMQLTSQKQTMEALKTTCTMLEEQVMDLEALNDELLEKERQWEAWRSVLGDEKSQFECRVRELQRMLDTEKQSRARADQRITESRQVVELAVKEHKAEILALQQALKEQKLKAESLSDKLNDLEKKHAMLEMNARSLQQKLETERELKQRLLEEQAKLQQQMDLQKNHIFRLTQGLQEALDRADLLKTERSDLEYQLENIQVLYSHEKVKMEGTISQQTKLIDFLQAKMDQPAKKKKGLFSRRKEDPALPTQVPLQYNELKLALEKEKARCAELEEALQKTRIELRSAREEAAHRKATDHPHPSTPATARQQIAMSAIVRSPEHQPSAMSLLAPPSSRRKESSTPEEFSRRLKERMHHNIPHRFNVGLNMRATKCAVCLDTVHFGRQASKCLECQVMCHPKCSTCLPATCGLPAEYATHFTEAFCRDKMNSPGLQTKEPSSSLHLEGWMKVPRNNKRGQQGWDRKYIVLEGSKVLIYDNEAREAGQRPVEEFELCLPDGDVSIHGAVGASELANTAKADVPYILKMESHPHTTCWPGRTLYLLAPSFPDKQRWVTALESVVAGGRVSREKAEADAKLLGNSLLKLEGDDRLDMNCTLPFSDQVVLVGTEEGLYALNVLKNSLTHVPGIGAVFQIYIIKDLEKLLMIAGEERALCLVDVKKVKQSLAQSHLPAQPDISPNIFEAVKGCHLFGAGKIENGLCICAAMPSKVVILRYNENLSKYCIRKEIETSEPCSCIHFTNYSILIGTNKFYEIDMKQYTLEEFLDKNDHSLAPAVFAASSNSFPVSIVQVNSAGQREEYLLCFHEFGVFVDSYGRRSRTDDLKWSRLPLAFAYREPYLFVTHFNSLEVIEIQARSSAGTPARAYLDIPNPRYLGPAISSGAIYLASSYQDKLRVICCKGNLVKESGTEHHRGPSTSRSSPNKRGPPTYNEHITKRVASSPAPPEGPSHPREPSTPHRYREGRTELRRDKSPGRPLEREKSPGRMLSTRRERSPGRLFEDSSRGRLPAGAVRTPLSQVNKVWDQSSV
Procedure: as §1, §2, §3, §4

mice = assay: Nesting, source data sheets Nesting (mouse line not given); format: in vivo; parameters: key to Nesting Score AVG (of three observers) / Nesting Score AVG, group mean / Nesting Score / Nesting Score AVG: 0 = nestlet untouched to 5 = near perfect nest; key to Nesting Score (NICK) / Nesting Score (MICHAELINE) / Nesting Score(MAX) / Nesting Score (KORLISS): 0: nestlet untouched; 1: nestlet hardly touched (more than 90% intact); 2: nestlet partially torn (50–90% intact); 3: mostly shredded but no identifiable nest, less than 50% intact but less than 90% in a single quarter of the cage; 4: An identifiable but flat nest, more than 90% torn and material is gathered in a single quarter of the cage; 5: A near perfect nest, more than 90% of the nestlet is torn and the nest is a crater, with walls higher than the mouse body height; settings: for Nesting Score AVG (of three observers) / Nestlet Weight / Nesting Score(MAX) / Nesting Score (MICHAELINE) / Nesting Score (NICK): individual mice, listed as 143; for Nestlet Weight: in g (unit assumed); for Nesting Score(MAX): observer MAX; for Nesting Score (MICHAELINE): observer MICHAELINE; for Nesting Score (NICK): observer NICK
Procedure: Mice were singly housed in standard cages overnight (6 pm–6 am) with a 3-gram cloth nestlet and allowed to freely behave. The next day, nestlets were weighed and photographed, and amount of nestlet shredding was recorded by three observers based on the following scale: 0—nestlet untouched, 1—nestlet hardly touched (more than 90% intact), 2—nestlet partially torn (50–90% intact), 3—mostly shredded but no identifiable nest, less than 50% intact but less than 90% in a single quarter of the cage, 4—An identifiable but flat nest, more than 90% torn and material is gathered in a single quarter of the cage, 5—A near perfect nest, more than 90% of the nestlet is torn and the nest is a crater, with walls higher than the mouse body height.

[1] = MWM Probe, single animal values, listed as 143
[2] = MWM Probe, single animal values, listed as 143, in s (unit assumed)
[3] = MWM training, Day 1, single animal values, listed as 143
[4] = MWM training, Day 2, single animal values, listed as 143
[5] = MWM training, Day 3, single animal values, listed as 143
[6] = MWM training, Day 4, single animal values, listed as 143

With `Cc1cccc(-c2cc3nccc(Nc4ccccc4)c3s2)c1` [BK40143] the “Platform Distance” value (TgAPP mice; [1]) was 0.467 and 0 and 0.449 and 0.195 and 0.184 and 0.331 and 0.254 and 0.89 and 0.328, the “Platform Entries” value (TgAPP mice; [1]) was 2 and 0 and 1 and 3 and the “Quad Distance” value (TgAPP mice; [1]) was 5.043 and 5.446 and 3.201 and 3.934 and 3.492 and 4.145 and 2.65 and 6.181 and 3.964. For the same compound, the “Quad Distance/Total” value (TgAPP mice; [1]) was 0.3982 and 0.4027 and 0.1894 and 0.2536 and 0.5166 and 0.3292 and 0.1787 and 0.6061 and 0.2552, the “Quad Entries” value (TgAPP mice; [1]) was 10 and 8 and 9 and 3 and 6 and 13 and 7 and the “Quad Time” value (TgAPP mice; [1]) was 22.9 and 26.8 and 10.6 and 13.3 and 30.6 and 20.6 and 8.1 and 36.5 and 15.3. The “Total Distance” value (TgAPP mice; [1]) was 12.663 and 13.525 and 16.899 and 15.514 and 6.759 and 12.592 and 14.83 and 10.786 and 10.198 and 15.531, the “Platform Latency” value (TgAPP mice; MWM Probe, single animal values, listed as 143, in s) was 7 and 60 and 18.8 and 32.8 and 39.9 and 29.7 and 3.9 and 19 and 17.1 and the “Platform Time” value (TgAPP mice; [2]) was 1.2 and 0 and 1.4 and 0.6 and 0.8 and 5.3 and 1. For the same compound, the “Quad Latency” value (TgAPP mice; [2]) was 3 and 9.6 and 9.7 and 11.8 and 11.9 and 1 and 2.6 and 4.4 and 3.3, the “Quad Time per Entry” value (TgAPP mice; [2]) was 2.29 and 3.35 and 1.178 and 4.433 and 5.1 and 1.585 and 1.35 and 5.214 and 1.9125 and the “Training Day 1 AVG” value (TgAPP mice; MWM training, Day 1, group average) was 51.6747. For the same compound, the “Training Day 1, mean of the three trials per animal” value (TgAPP mice; MWM training, Day 1, per-animal mean, listed as 143) was 53.4467 and 60 and 52.4667 and 29.4467 and 47.4833 and 58.2367 and 44.37 and 51.2967, the “Training Day 1, trial 1” value (TgAPP mice; [3]) was 40.34 and 60 and 56.02 and the “Training Day 1, trial 2” value (TgAPP mice; [3]) was 60 and 37.4 and 16.7 and 22.45 and 54.71 and 56.59. For the same compound, the “Training Day 1, trial 4” value (TgAPP mice; [3]) was 60 and 11.64 and 20.5 and 33.89, the “Training Day 2 AVG” value (TgAPP mice; MWM training, Day 2, group average) was 35.2243 and the “Training Day 2, mean of the three trials per animal” value (TgAPP mice; MWM training, Day 2, per-animal mean, listed as 143) was 48.7167 and 60 and 46.3833 and 23.8467 and 50.26 and 10.58 and 21.0467 and 41.7533 and 44.3033 and 5.353. For the same compound, the “Training Day 2, trial 1” value (TgAPP mice; [4]) was 60 and 20.69 and 7.13 and 14.22 and 47.78 and 22.96 and 5.56, the “Training Day 2, trial 2” value (TgAPP mice; [4]) was 60 and 19.15 and 23.07 and 4.53 and 36.28 and 34.46 and 5.16 and the “Training Day 2, trial 4” value (TgAPP mice; [4]) was 26.15 and 60 and 27.78 and 30.78 and 20.08 and 12.64 and 43.02 and 49.95 and 5.34. The “Training Day 3 AVG” value (TgAPP mice; MWM training, Day 3, group average) was 21.9237, the “Training Day 3, mean of the three trials per animal” value (TgAPP mice; MWM training, Day 3, per-animal mean, listed as 143) was 16.49 and 19.77 and 22.4067 and 12.88 and 27.5233 and 6.497 and 51.49 and 20.0267 and 24.96 and 17.1933 and the “Training Day 3, trial 1” value (TgAPP mice; [5]) was 5.91 and 7.09 and 10.32 and 15.21 and 29.09 and 11.01 and 60 and 23.94 and 21.27 and 31.09. For the same compound, the “Training Day 3, trial 2” value (TgAPP mice; [5]) was 2.72 and 9.21 and 18.46 and 13.59 and 19.08 and 3.47 and 34.47 and 8.82 and 17.41 and 5.46, the “Training Day 3, trial 4” value (TgAPP mice; [5]) was 40.84 and 43.01 and 38.44 and 9.84 and 34.4 and 5.01 and 60 and 27.32 and 36.2 and 15.03 and the “Trial 1 D4 AVG” value (TgAPP mice; MWM training, Day 4, Trial 1, group average) was 16.872. The “Training Day 4 AVG” value (TgAPP mice; MWM training, Day 4, group average) was 25.5753, the “Training Day 4, mean of the three trials per animal” value (TgAPP mice; MWM training, Day 4, per-animal mean, listed as 143) was 15.5667 and 10.07 and 25.41 and 53.8233 and 37.2967 and 27.5933 and 22.5667 and 22.4167 and 10.7767 and 30.2333 and the “Training Day 4, trial 1” value (TgAPP mice; [6]) was 12.47 and 11.66 and 37.95 and 60 and 26.19 and 10.69 and 29.33 and 43.27 and 12.2 and 43.31. The “Training Day 4, trial 2” value (TgAPP mice; [6]) was 3.58 and 4.64 and 11.51 and 49.87 and 42.77 and 12.09 and 15.35 and 10.7 and 9.45 and 8.76, the “Training Day 4, trial 4” value (TgAPP mice; [6]) was 30.65 and 13.91 and 26.77 and 51.6 and 42.93 and 60 and 23.02 and 13.28 and 10.68 and 38.63 and the “Morris water maze probe day (time in correct quadrant, quadrant entries, latency to platform)” value (TgAPP mice; TgAPP mice, 5 mg/kg IP, 6 wk, vs DMSO) was “showed improvement on measures of memory on the probe day of the water maze”. The “Morris water maze training trials: time to locate the platform” value (TgAPP mice; TgAPP mice, BK40143 5 mg/kg, BK40197 45 mg/kg IP, 6 wk, vs DMSO) was “locate the platform significantly quicker on later training trials”, the inhibition at 10 µM (ABL1) was 90% and the remaining binding at 10 µM (ABL1; lower = stronger binding, read-out: ABL1 %Ctrl @ 10000nM) was 10%. The inhibition at 10 µM (CIT) was 97.2%, the remaining binding at 10 µM (CIT; lower = stronger binding, read-out: CIT %Ctrl @ 10000nM (POC)) was 2.8% and the “Nesting Score AVG, group mean” value (mice; 2.5mg/kg) was 0.9048. For the same compound, the “Nesting Score AVG (of three observers)” value (mice; 2.5mg/kg) was 0 and 1.333 and 2.667 and 1, the “Nestlet Weight” value (mice; 2.5mg/kg) was 2.6 and 2.8 and 2.7 and 0.9 and 2.5 and the “Nesting Score(MAX)” value (mice; 2.5mg/kg) was 0 and 2 (nestlet partially torn (50–90% intact)) and 3 (mostly shredded but no identifiable nest, less than 50% intact but less than 90% in a single quarter of the cage) and 1 (nestlet hardly touched (more than 90% intact)). For the same compound, the “Nesting Score (MICHAELINE)” value (mice; 2.5mg/kg) was 0 and 1 (nestlet hardly touched (more than 90% intact)) and 2 (nestlet partially torn (50–90% intact)), the “Nesting Score (NICK)” value (mice; 2.5mg/kg) was 0 and 1 (nestlet hardly touched (more than 90% intact)) and 3 (mostly shredded but no identifiable nest, less than 50% intact but less than 90% in a single quarter of the cage) and the “Nesting Score AVG, group mean” value (mice; 5.0mg/kg) was 1.067. For the same compound, the “Nesting Score AVG (of three observers)” value (mice; 5.0mg/kg) was 1.333 and 0.3333 and 1 and 2 and 0.6667 and 3.667 and 0, the “Nestlet Weight” value (mice; 5.0mg/kg) was 2.5 and 2.7 and 2.1 and 2.6 and 2.9 and 0 and the “Nesting Score(MAX)” value (mice; 5.0mg/kg) was 2 (nestlet partially torn (50–90% intact)) and 1 (nestlet hardly touched (more than 90% intact)) and 4 and 0. The “Nesting Score (MICHAELINE)” value (mice; 5.0mg/kg) was 1 (nestlet hardly touched (more than 90% intact)) and 0 and 2 (nestlet partially torn (50–90% intact)) and 3 (mostly shredded but no identifiable nest, less than 50% intact but less than 90% in a single quarter of the cage) and the “Nesting Score (NICK)” value (mice; 5.0mg/kg) was 1 (nestlet hardly touched (more than 90% intact)) and 0 and 2 (nestlet partially torn (50–90% intact)) and 4.

Reference: publication PMC11249953, “c-KIT inhibitors reduce pathology and improve behavior in the Tg(SwDI) model of Alzheimer’s disease” (Life Science Alliance, 2024)
